Reference: article PMC12703741, “Light-Activated Metal-Dependent Protein Degradation: A Heterobifunctional Ruthenium(II) Photosensitizer Targeting New Delhi Metallo-β-lactamase 1” (Journal of the American Chemical Society, 2025)
Like-named read-outs stand apart in the source and are kept apart here.

Legend:
[1] = organic photosensitizers; cited from earlier work
RAW264.7 = conditions: RAW

Compound	Excited state lifetime [1]	LD50 (RAW264.7; 24 h)	LD50 (RAW264.7; 48 h)	LD50 (HaCaT; 24 h)	LD50 (HaCaT; 48 h)	LD50 (HCT116; HCT116, 24 h)	LD50 (HCT116; HCT116, 48 h)	LD50 (HeLa; 24 h)	LD50 (HeLa; 48 h)	LD50 (hTERT RPE-1; RPE1, 24 h)	LD50 (hTERT RPE-1; RPE1, 48 h)	LD50 (HepG2; HepG2, 24 h)	LD50 (HepG2; HepG2, 48 h)	LD50 (HEK293T; 24 h)	LD50 (HEK293T; 48 h)
porfimer sodium	14 ns														
CN[C@@H]1C[C@H]2O[C@@](C)([C@@H]1OC)n1c3ccccc3c3c4c(c5c6ccccc6n2c5c31)C(=O)NC4 [Staurosporine]		0.03 µM	0.01 µM	0.05 µM	0.01 µM	0.08 µM	0.02 µM	0.05 µM	0.02 µM	0.01 µM	0.01 µM	0.3 µM	0.09 µM	0.07 µM	0.01 µM
C=CC1=C(C)c2cc3[nH]c(cc4nc(cc5[nH]c(cc1n2)c(C)c5CCC(=O)O)C(CCC(=O)O)=C4C)c(C)c3C=C [protoporphyrin IX]	13 ns														
